Reference: patent US20200352914A1, “METHODS OF TREATING HYPERTENSION WITH ACTIVATORS OF TIE-2” (Aerpio Pharmaceuticals, Inc., priority 2019, published 2020)

Tests used:
[1] = tested on: endothelium-intact aortic rings from WT and Akita mice; assay: Vascular reactivity of aortic rings from diabetic Ins2Akita mice and WT littermates (TABLE 29); set-up: species or system mouse; conditions: 10 μmol/L
Description: Aortic rings from eight to ten-week old male C57/BL6 mice were used to investigate the effects of Compound 2 on endothelial function. Twelve to fourteen-week old male Ins2^Akita mice and non-diabetic littermate controls were used to study the effects of Compound 2 on diabetes-associated endothelial dysfunction. Myograph experiments were performed in modified Krebs-Henseleit solution. Aortae were dissected free of adhering tissue, cut into 2-mm segments, and mounted in 5-mL myograph chambers under a basal tension of 1 g. Relaxation to cumulatively increasing concentrations (0.001-100 μmol/L) of Compound 2 or solvent (DMSO) was assessed in endothelium-intact aortic segments pre-contracted with phenylephrine (1 μmol/L) in the absence or presence of N^ω-nitro-L-arginine methyl ester (L-NAME; 300 μmol/L).
To determine whether VE-PTP inhibition affects endothelial dysfunction that accompanies diabetes, aortic rings were isolated from 12-week old diabetic Ins2^Akita(Akita) mice and their non-diabetic littermates.
FIG. 29 panels A-B illustrate the effects of Compound 2 on diabetes-induced endothelial dysfunction. FIG. 29 panel A illustrates the effects of Compound 2 on acetylcholine-induced relaxation of endothelium-intact aortic rings from WT and Akita mice.

human endothelial cells = assay: NO assay (nitrite in supernatant) in human endothelial cells; assay type: cell-based; conditions: 0.3-30 μmol/L, 30 minutes
Description: Confluent human endothelial cell monolayers were cultured overnight in MCDB131 containing 0.1% BSA and sepiapterin (10 μmol/L). The monolayers were then incubated with increasing concentrations of Compound 2 (0.3-30 μmol/L) or solvent (DMSO) for 30 minutes. In separate experiments, cells treated with a control siRNA or siRNA directed against ABL1 were cultured in MCDB131 containing 0.1% BSA and sepiapterin (10 μmol/L), and then treated with Compound 2 (30 μmol/L) or solvent (DMSO) for 30 minutes before the addition of Yoda1 (1 μmol/L) for an additional 30 minutes. HEK293 cells co-transfected with wild-type eNOS and wild-type ABL1, DN ABL1, or GFP (as a control) were cultured overnight in minimal essential medium containing 0.5% heat-inactivated FCS and sepiapterin (10 μmol/L). Aliquots of the culture media were collected before and after each treatment. Potential cell debris was removed by centrifugation of the media at 1000 rpm for 5 minutes. NO release was assessed by determining the amount of nitrite in the cell supernatants using a Nitric Oxide Analyzer after reaction with iodide and acetic acid under nitrogen at room temperature.
To investigate the role of VE-PTP on the regulation of eNOS, human endothelial cells were treated with increasing concentrations of Compound 2 (for 30 minutes) and the generation of NO was assessed using a NO analyzer.

With `CCc1nc([C@H](Cc2ccc(NS(=O)(=O)O)cc2)NC(=O)[C@H](Cc2ccccc2)NC(=O)OC)cs1` [Compound 2] the “acetylcholine-induced and NO-mediated relaxation in aortic rings from diabetic mice” value ([1]; Ins2Akita mice) was “restored”, the “elevated phenylephrine-induced contraction of aortic rings” value ([1]; Ins2Akita mice) was “not influenced” and the acetylcholine-induced endothelium-dependent relaxation ([1]; tissues from non-diabetic mice) was “potentiated responses”. For the same molecule, the “basal NO production (nitrite in supernatant)” value (human endothelial cells) was “enhanced basal NO production”.
